Results on five compounds are retold here after patent US8859022B2, “Antihypertensive agents” (Bourbon Corporation, priority 2011, dated 2014).

For data set [1] the following is noted: Apple, literature values; cited from earlier work.
Data set [2] in a line: Literature oral absorption of apple procyanidins (J. Agric. Food Chem., 54, 884-892, 2006). The format is in vivo, rats. To be noted: worked out from literature values, A in mg/kg. An excerpt: Studies on oral absorbability of various kinds of proanthocyanidins have reported that oligomers with a low degree of polymerization are efficiently orally absorbed (see R. R. Holt, S. A. Lazarus, M. C. Sullards, Q. Y. Zhu, D. D. Schramm, J. F. Hammerstone, C. G. Fraga, H. H. Schmitz and C. L. Keen, Procyanidin dimer B2 [epicatechin-(4β-8)-epicatechin] in human plasma after the consumption of a flavanol-rich cocoa. Am. J. Clin. Nutr. 2002, 76, p. 798-804. T. Shoji, S. Masumoto, N. Moriichi, H. Akiyama, T. Kanda, Y. Ohtake, Y. Goda. Apple procyanidin oligomers absorption in rats after oral administration: Analysis of procyanidins in plasma using the porter method and High-Performance Liquid Chromatography/Tandem Mass Spectrometry. J. Agric. Food Chem. 2006, 54, p. 884-892).

Data set [3] is described as follows: Oral absorbability evaluation test of proanthocyanidins extracted from Boysenberry seed (LC/MS/MS of blood plasma). In kind it is in vivo, Wistar rats. To be noted: Boysenberry seed (present invention); for B/A (blood concentration after 2 hours / administration quantity): A in mg/kg, B in μg/mL; for Blood concentration after 2 hours B: partitioned concentrate of seed extract 1000 mg/kg oral, Wistar rats, plasma. How it is done:
The test animal used was Wistar rats (males, aged 9 weeks, with initial weight of 190 to 210 g, obtained from Japan SLC, Inc.). After fasting for 12 hours, the Wister rats were forcefully orally administered each 1000 mg/kg of the partitioned concentrate of seed extract or the partitioned concentrate of thermally-treated seed extract obtained in Example 1. Then, every 1, 2, 4, and 6 hours after the administration, the rats were killed to collect the whole blood. Each whole blood was centrifuged for 10 minutes at 4° C. at 2,000×g to obtain blood plasma as a supernatant. To 1 mL of each blood plasma were added 30 μL of 50% formic acid and 100 μL of 10 mM ascorbic acid solution to mix together, and to 1 mL of the mixed blood plasma solution were added 50 μL of (1 μg of) a catechol solution as an internal standard reagent and 30 μL of phosphoric acid to prepare each sample for analysis. Regarding the samples, measurements of a procyanidin dimer, a propelargonidin dimer, a procyanidin trimer, and a propelargonidin trimer were carried out at molecular weights of 577/289, 561/289, 865/289, and 849/289, using a liquid chromatography-mass spectrometry (LC/MS) (Shimadzu Prominence UFLC manufactured by Shimadzu Corp.; with ODS column; gradient elution with formic acid, methanol, and water) and MS/MS (API 3200 manufactured by Applied Biosystems Co. Ltd., negative-ion mode) to determine the quantities of the proanthocyanidins in the blood plasma. […] Additionally, FIG. 5 and Table 3 show LC/MS charts of the measurements of proanthocyanidin dimer and trimer components in the blood plasma after 2 hours of the administration of the partitioned concentrate of seed extract.

Each structure is given as a SMILES string. Where two headings read alike, the source gives them in different places.

`Oc1cc(O)c2c(c1)O[C@H](c1ccc(O)c(O)c1)[C@H](O)[C@H]2c1c(O)cc(O)c2c1O[C@H](c1ccc(O)c(O)c1)[C@@H](O)C2` [PC dimer B1]: the “Blood concentration after 2 hours B” value in data set [1] is 120 ng/mL. Moreover, the “B/A (blood concentration after 2 hours / administration quantity)” value in data set [2] is 2.4 (×10^−6) (kg/ml).
As for `Oc1cc(O)c2c(c1)O[C@H](c1ccc(O)c(O)c1)[C@H](O)[C@H]2c1c(O)cc(O)c2c1O[C@H](c1ccc(O)c(O)c1)[C@H](O)C2` [PC dimer B2, epicatechin-(4β-8)-epicatechin], the “Blood concentration after 2 hours B” value in data set [1] is 230 ng/mL. In addition, the “B/A (blood concentration after 2 hours / administration quantity)” value in data set [2] was 2.5 (×10^−6) (kg/ml).
As for `Oc1cc(O)c2c(c1)O[C@H](c1ccc(O)c(O)c1)[C@@H](O)[C@@H]2c1c(O)cc(O)c2c1O[C@H](c1ccc(O)c(O)c1)[C@@H](O)C2` [PC dimer B3, Procyanidin B3], in data set [3], the “B/A (blood concentration after 2 hours / administration quantity)” value is recorded as 30.0 (×10^−6) (kg/ml) and the “Blood concentration after 2 hours B” value amounted to 120 ng/mL.
For `Oc1cc(O)c2c(c1)O[C@H](c1ccc(O)c(O)c1)[C@@H](O)[C@@H]2c1c(O)cc(O)c2c1O[C@H](c1ccc(O)c(O)c1)[C@H](O)C2` [PC dimer B4, Procyanidin B4] the same measures were 32.9 (×10^−6) (kg/ml) and 560 ng/mL.
Take `Oc1cc(O)c2c(c1)O[C@H](c1ccc(O)c(O)c1)[C@H](O)[C@H]2c1c(O)cc(O)c2c1O[C@H](c1ccc(O)c(O)c1)[C@H](O)[C@H]2c1c(O)cc(O)c2c1O[C@H](c1ccc(O)c(O)c1)[C@H](O)C2` [PC trimer C1]: the “B/A (blood concentration after 2 hours / administration quantity)” value in data set [3] is 25.0 (×10^−6) (kg/ml); in data set [2], 1.9 (×10^−6) (kg/ml). Moreover, the “Blood concentration after 2 hours B” value in data set [3] was 200 ng/mL; in data set [1], 120 ng/mL.
